In the METLIN SMRT retention time set (Domingo-Almenara et al. 2019):

Assay: gradient 5% acetonitrile 3 min, to 50% in 2 min, to 85% in 15 min, held 3 min, 100 µL/min
Details: column: Zorbax Extend-C18 2.1 x 50 mm; eluents: water / acetonitrile, 0.1% formic acid
Outline: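 The system's dead and dwell volumes were 40 μL and 900 μL, with a Zorbax Extend-C18 column (2.1 × 50 mm, 1.8 μm) run at 100 μL/min in water and acetonitrile containing 0.1% formic acid each. Pure standards were analyzed in mixtures of ~100 molecules by HPLC–quadrupole time-of-flight mass spectrometry in positive and negative ionization mode. Retention time was assigned from computationally picked, manually inspected adduct peaks.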

RP-LC retention time [s] | Compound
591 | OC1(c2ccccn2)CCOC2(CCN(Cc3ccc(Cl)c(F)c3)CC2)C1 (stereo not drawn)
639 | O=C(NCc1ccc(F)cc1F)C1CCN(c2cn[nH]c(=O)c2)CC1
844 | O=C(Cc1ccsc1)NCc1cnoc1-c1ccc(F)cc1
1030 | Cc1nc(-c2csc(S(=O)(=O)N3CCCC(C(=O)Nc4ccc(C)c(F)c4)C3)c2)no1 (stereo not drawn)
674 | O=C(NCc1ccc(F)cc1)Nc1cccc(-c2ccc(N3CCOCC3)nn2)c1
770 | Cc1ccc(C)c(NC(=O)Cn2c(N3CCOCC3)nc(C)cc2=O)c1
816 | CCOc1ccc(NC(=O)Cn2nc3c(N4CCSCC4)nccn3c2=O)cc1
764 | COc1ccc(CNC(=O)C2(C)Cn3nc(C)cc3C(=O)N2c2ccc(F)cc2)cc1 (stereo not drawn)
979 | CN(C(=O)CN1C(=O)NC2(CCC(C(C)(C)C)CC2)C1=O)c1ccccc1 (stereo not drawn)
927 | COc1cccc(NC(=O)Nc2nccn(-c3ccc(F)c(F)c3)c2=O)c1
766 | CSc1ccc(CNC(=O)C2CCN(Cc3cn(C)c4ccc(Cl)cc34)CC2)cc1
973 | Cc1ccc(NC(=O)Cn2nc(C(=O)N3CCCCC3)c3ccccc32)c(Br)c1
796 | O=C(C1=CN(c2ccc3c(c2)OCO3)c2cc(F)ccc2S1(=O)=O)N1CCCC1
806 | COc1cccc(CNC(=O)C2(C)CCN(C(=O)Nc3ccccc3C(F)(F)F)CC2)c1
589 | Cc1cccc(NC(=O)C2CCCN(S(=O)(=O)c3c[nH]c(C(=O)N4CCCC4)c3)C2)c1 (stereo not drawn)
821 | COc1ccc2[nH]cc(CCN3CC(C(=O)Nc4cc(F)cc(F)c4)CC3=O)c2c1 (stereo not drawn)
661 | CCNC(=O)C1CCCN(c2nc3ncn(CC(=O)Nc4ccc(CC)cc4)c(=O)c3s2)C1 (stereo not drawn)

RP-LC retention time [s] | Compound
823 | COc1ccc(CN2N=C(C(=O)N3CCCC3)S(=O)(=O)c3ccccc32)cc1
844 | O=C(Nc1ccc(N2CCN(c3ccccc3)C2=O)nc1)C1CCC1
813 | O=C(c1ccc(-c2cccs2)nc1)N1CCCCC1
746 | Cc1cc(F)ccc1NC(=O)Cn1nc2cc(-c3ccccn3)nc(C)n2c1=O
850 | CSc1ccc(CNC(=O)CN2C(=O)C3CCCCN3c3ccc(C(=O)N4CCCC4)cc32)cc1 (stereo not drawn)
577 | CCCC(=O)N1CCCn2nc(-c3cccnc3)cc2C1
760 | C=CCNC(=O)C1CCCN(C(=O)Nc2ccc(NC(=O)Nc3ccc(C)cc3C)cc2)C1 (stereo not drawn)
985 | CCn1c(=O)sc2cc(S(=O)(=O)N3CCC(C(=O)Nc4ccc(C(C)C)cc4)CC3)ccc21
926 | O=C(c1cc2ccccc2[nH]1)N1CCN(c2ccc(=O)n(-c3cccc(Cl)c3)n2)CC1
578 | CCN(Cc1ccc(F)cc1)Cc1cc(=O)n2cc(Cl)ccc2n1
900 | CCOc1ccccc1C1NC(=O)N(CC(=O)Nc2ccc3c(c2)CCC3)C2=C1C(=O)OC2 (stereo not drawn)
689 | O=C(CSc1ccc(N2CCCC(C(=O)NC3CC3)C2)nn1)Nc1cccc(Cl)c1 (stereo not drawn)
668 | Cc1ccc(NC(=O)N2CCCC2C(=O)NC2CC2)cc1 (stereo not drawn)
694 | O=C(NC1CC1)C1CCN(Cc2cc3ccccc3n2Cc2ccccc2)CC1
1110 | O=C(Cc1ccccc1F)N1CCCC1c1nc(-c2cccc(C(F)(F)F)c2)no1 (stereo not drawn)
708 | CCOc1ccc(CNC(=O)C2CCN(Cc3cn(C)c4ccccc34)CC2)cc1OCC
676 | CCCc1ccc(S(=O)(=O)Nc2ccc(N3CCCN(C)CC3)cc2C(=O)O)cc1

The next lines start with the compound.

Compound | RP-LC retention time [s]
COc1ccc(-c2nnc(-c3ccc(C)c(S(=O)(=O)N(C)CC(=O)O)c3)o2)cc1OC | 748
O=C(Nc1cccc(Br)c1)N1CCc2nc(-c3ccccc3)ncc2C1 | 1030
COc1ccc(CCc2nc3nccc(-c4ccc5c(c4)OCCCO5)n3n2)cc1OC | 874
COCCC1CCN(C(=O)C2CCN(C(C)=O)CC2)CC1 | 606
Cc1nn(CC(=O)NC(C)c2ccc3c(c2)OCCO3)c(=O)c2c(C)n(-c3ccccc3)nc12 (stereo not drawn) | 827
Cc1nn(-c2ccc(-c3ccccc3)nn2)c(C)c1S(=O)(=O)N1CCN(C2CCCCC2)CC1 | 733
CCc1nc(N)n(CC(=O)NCc2ccc(C)cc2)c(=O)c1C | 642
O=C(Nc1nc(-c2cccc3ccccc23)cs1)c1ccncc1 | 904
COc1cccc(CNC(=O)C2(c3ccc(NC(C)=O)cc3)CCC2)c1 | 737
COc1ccc(-c2noc(CN3C(=O)COc4cc(C(C)(C)C)ccc43)n2)cc1OC | 1110
CCOc1ccc(-c2noc(Cn3ccn4nc(-c5ccccc5C)cc4c3=O)n2)cc1 | 1160
Cc1cc(NC(=O)C(=O)NCCCn2ccnc2)ccc1Br | 659
OCCNCc1ccc(-c2ccccc2F)o1 | 596
O=C(CCCN1CCC2(CC1)C(=O)NCN2c1ccccc1)c1ccc(F)cc1 | 725
CCCCCc1c(C)nn(-c2nc(CC(=O)Nc3nc4ccccc4[nH]3)cs2)c1C | 995
COc1ccc(S(=O)(=O)Cc2nc(-c3cccc(C(F)(F)F)c3)no2)cc1 | 1060
CC(=O)NC1(C(=O)O)CCCC1 | 617
Cc1noc(-c2ccnc(-n3cnc(C(=O)NC4CCCCC4)c3)c2)n1 | 776
Cc1nc(Nc2ccccc2)sc1C(=O)Nc1cccc(F)c1 | 998
COc1ccc(C2(C(=O)N3CCCC3c3nc(-c4ccccc4Cl)no3)CC2)cc1 (stereo not drawn) | 1070
COc1ccc(-c2ccc(=O)n(Cc3nc(-c4cccc(Br)c4)no3)n2)cc1 | 997
CC(=O)N1C[C@@H]2CCCN3CCC[C@@H]([C@H]23)[C@H]1CCCC(=O)NCCCc1c(C)noc1C | 575
Cc1cc(C)cc(NC(=O)c2cc(C)n3nc(C)cc3n2)c1 | 1160
CCN1C(=O)COc2ccc(-c3nc(NC(=O)c4cccc(OC)c4)sc3C)cc21 | 1040
O=C(c1ccco1)N1CCc2c(c(CO)nn2Cc2ccccc2)C1 | 657
CCc1nc2cc(-c3noc(-c4cccnc4SC)n3)ccc2o1 | 1220
CCCC(=O)NCCn1c(=O)n(Cc2cccc(C)c2)c2cccnc21 | 759

Compound | RP-LC retention time [s]
CCC(C)NC(=O)N1CCc2c(c(-c3nc(C)no3)nn2C)C1 (stereo not drawn) | 673
CCc1ccc(C(=O)Nc2ccc3c(c2)Sc2ncccc2C(=O)N3CC)cc1 | 936
CCS(=O)(=O)Nc1ccc(OCc2nnc(-c3ccccc3)o2)cc1 | 804
COc1ccc(CNC(=O)c2nnc(-c3ccc(S(=O)(=O)N(C)C)cc3)o2)cc1 | 845
CCc1nnc2ccc(-c3noc(COc4ccc(Cl)cc4)n3)cn12 | 770
CCOc1ccc(C(=O)N2CCc3cc(-c4csc(C)n4)ccc32)cc1 | 1060
COCCOC1CCC12CCN(C(=O)c1cnc[nH]1)CC2 (stereo not drawn) | 575
Cc1cccnc1NC(=O)Nc1c[nH]c2ccccc12 | 826
O=C(NCCSCc1ccco1)c1cc(-c2ccccn2)nc2ccccc12 | 885
O=C(NCCCN1CCc2ccccc2C1)c1ccnc(-c2cccs2)c1 | 646
CCc1noc(-c2cnc3nc(C)ccc3c2Nc2ccccc2C)n1 | 818
O=C(Cn1cnc2c(nc3n2CCCCC3)c1=O)N1CCN(C2CCCCC2)CC1 | 585
CCN(CC)S(=O)(=O)c1ccc2c(c1)cc(C(=O)N1CCN(c3ncccn3)CC1)n2C | 880
CCN(CC)C(=O)CSc1c(C)cnc2c1c(=O)n(C)c(=O)n2C | 752
Cc1ccc(-c2cn3ccn(-c4ccc(F)cc4)c(=O)c3n2)cc1 | 827
CCCn1c(CCNC(=O)c2cc(C)cc(C)c2)nc2cccnc21 | 716
CC[C@@]1(O)C(=O)OCc2c1cc1n(c2=O)Cc2cc3c(NC(=O)CN)cccc3nc2-1 | 626
CCN(CC)S(=O)(=O)c1ccc2c(c1)N(CC(=O)N1CCN(C)CC1)C(=O)C1CCCCN21 (stereo not drawn) | 658
Cc1ccc(S(=O)(=O)c2cnc3cc4c(cc3c2N2CCOCC2)OCCO4)cc1 | 849
COc1ccccc1NCC(O)Cn1ccc2ccccc21 (stereo not drawn) | 871
CCOc1ccc(CNC(=O)CCc2c(-c3ccc(Br)cc3)nc3ccccn23)cc1 | 717
Cc1ccc(-c2cn3c(CC(=O)Nc4cccc(C#N)c4)csc3n2)cc1C | 855
CCCN(C(=O)Nc1ccccc1[N+](=O)[O-])c1nc(-c2ccccc2)cs1 | 1400
COc1cc(OC)cc(-c2nc(-c3cn(Cc4cccc(F)c4)nn3)no2)c1 | 1030
Cc1noc(C)c1CC(=O)N1CCN(c2ncnc3c2CCC3)CC1 | 559
Cc1cc(S(=O)(=O)N2[C@H]3CC[C@@H]2c2cnc(-c4ccccc4)nc2C3)ccc1F | 1090
COc1cc(C(=O)N(C)CCc2noc(C3CCCCC3)n2)cc(OC)c1OC | 814
